Test results: ChEMBL document CHEMBL1201862, “PubChem BioAssay data set” (2004)
The source made the active and inactive calls.

How the values were obtained:
[1] = T. cruzi intracellular amastigote growth inhibition, dose response, imaging, CA-I/72 strain, bovine embryo skeletal muscle, dry powder (AID 651885); assay type: functional, cell-based
[2] = cells; assay type: functional, cell-based
[3] = target: FAD-linked sulfhydryl oxidase ALR (Homo sapiens, UniProt P55789); test: inhibitors of human ALR sulfhydryl oxidase, dose response, biochemical, H2O2 detection, luminescence, cherry-pick (AID 493248)
Sequence of FAD-linked sulfhydryl oxidase ALR (P55789 whole entry): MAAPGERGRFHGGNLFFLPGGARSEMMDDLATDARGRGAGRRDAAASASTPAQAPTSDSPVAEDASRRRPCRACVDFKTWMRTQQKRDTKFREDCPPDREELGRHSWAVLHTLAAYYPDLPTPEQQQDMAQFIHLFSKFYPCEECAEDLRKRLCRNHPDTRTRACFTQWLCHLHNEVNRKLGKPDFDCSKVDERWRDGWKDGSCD

[4] = target: T1, Nuclear receptor subfamily 0 group B member 1 (Homo sapiens, UniProt P51843); assay type: functional, cell-based;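 further: HEK293T cells transfected with SF-1 and DAX-1 plus StAR promoter luciferase reporter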
T1 sequence (P51843 whole entry): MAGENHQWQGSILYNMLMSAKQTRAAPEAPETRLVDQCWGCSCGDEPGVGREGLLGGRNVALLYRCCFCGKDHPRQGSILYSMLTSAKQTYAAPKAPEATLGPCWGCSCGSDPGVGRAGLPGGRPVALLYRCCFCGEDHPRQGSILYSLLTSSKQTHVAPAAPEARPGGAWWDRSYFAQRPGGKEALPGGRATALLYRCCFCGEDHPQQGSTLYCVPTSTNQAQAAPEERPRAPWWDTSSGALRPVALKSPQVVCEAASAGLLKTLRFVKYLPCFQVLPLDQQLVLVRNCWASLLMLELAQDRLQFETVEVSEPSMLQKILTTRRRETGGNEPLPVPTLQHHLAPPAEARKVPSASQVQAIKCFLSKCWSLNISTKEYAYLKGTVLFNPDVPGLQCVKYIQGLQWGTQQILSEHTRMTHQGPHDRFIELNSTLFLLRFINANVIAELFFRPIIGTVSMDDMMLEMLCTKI

[5] = target: T2, Oxysterols receptor LXR-beta (Homo sapiens, UniProt P55055); assay type: functional, cell-based;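 further: Cell-based luminescence dose-response assay of agonist activity at LXR, run as a confirmatory counterscreen to a daf-12 agonist screen; HEK293 cells with Gal4-LXR fusion and GAL4-driven luciferase reporter; agonist potency from rising luciferase signal of a Gal4-LXR reporter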
T2 sequence (P55055 whole entry): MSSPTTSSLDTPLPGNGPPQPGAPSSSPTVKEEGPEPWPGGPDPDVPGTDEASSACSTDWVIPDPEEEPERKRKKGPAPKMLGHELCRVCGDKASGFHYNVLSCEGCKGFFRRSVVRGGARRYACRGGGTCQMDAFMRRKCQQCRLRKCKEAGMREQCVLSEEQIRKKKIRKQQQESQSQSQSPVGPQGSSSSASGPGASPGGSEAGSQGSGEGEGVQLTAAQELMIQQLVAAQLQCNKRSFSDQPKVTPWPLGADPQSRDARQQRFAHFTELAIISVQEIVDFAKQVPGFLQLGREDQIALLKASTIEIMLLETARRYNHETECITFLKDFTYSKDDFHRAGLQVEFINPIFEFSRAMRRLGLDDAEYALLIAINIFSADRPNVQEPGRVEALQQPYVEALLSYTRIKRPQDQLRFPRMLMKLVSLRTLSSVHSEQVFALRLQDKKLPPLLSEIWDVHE

[6] = cells
[7] = target: Fructose-bisphosphate aldolase (Mycobacterium tuberculosis, UniProt P9WQA3); test: Fluorescence-based biochemical high throughput dose response assay for inhibitors of the fructose-bisphosphate aldolase (FBA) of M. tuberculosis.; assay type: functional
Sequence of Fructose-bisphosphate aldolase (P9WQA3 whole entry): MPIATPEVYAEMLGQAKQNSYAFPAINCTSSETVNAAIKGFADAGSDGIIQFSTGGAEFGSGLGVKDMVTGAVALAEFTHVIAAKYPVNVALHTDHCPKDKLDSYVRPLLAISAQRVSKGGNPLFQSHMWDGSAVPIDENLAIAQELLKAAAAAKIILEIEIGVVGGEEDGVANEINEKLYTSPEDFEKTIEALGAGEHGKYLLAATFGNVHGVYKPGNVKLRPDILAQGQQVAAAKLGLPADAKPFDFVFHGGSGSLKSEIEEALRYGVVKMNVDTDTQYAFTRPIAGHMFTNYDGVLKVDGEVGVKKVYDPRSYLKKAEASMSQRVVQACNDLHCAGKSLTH

[8] = ADAM10 inhibitors, peptide cleavage, dose response, biochemical, QFRET (AID 743254);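 further: ADAM10 enzyme with the DM2 quenched FRET peptide as substrate; EDANS fluorescence gain as the protease cuts the substrate; inhibitor potency against ADAM10 proteolytic activity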
[9] = target: Disintegrin and metalloproteinase domain-containing protein 17 (Homo sapiens, UniProt P78536); test: ADAM17 protease inhibitors, dose response, counter-screen for ADAM10 exosite inhibitor project, biochemical, quenched FRET substrate (AID 743253)
Sequence of Disintegrin and metalloproteinase domain-containing protein 17 (P78536 whole entry, the tested form may be a part): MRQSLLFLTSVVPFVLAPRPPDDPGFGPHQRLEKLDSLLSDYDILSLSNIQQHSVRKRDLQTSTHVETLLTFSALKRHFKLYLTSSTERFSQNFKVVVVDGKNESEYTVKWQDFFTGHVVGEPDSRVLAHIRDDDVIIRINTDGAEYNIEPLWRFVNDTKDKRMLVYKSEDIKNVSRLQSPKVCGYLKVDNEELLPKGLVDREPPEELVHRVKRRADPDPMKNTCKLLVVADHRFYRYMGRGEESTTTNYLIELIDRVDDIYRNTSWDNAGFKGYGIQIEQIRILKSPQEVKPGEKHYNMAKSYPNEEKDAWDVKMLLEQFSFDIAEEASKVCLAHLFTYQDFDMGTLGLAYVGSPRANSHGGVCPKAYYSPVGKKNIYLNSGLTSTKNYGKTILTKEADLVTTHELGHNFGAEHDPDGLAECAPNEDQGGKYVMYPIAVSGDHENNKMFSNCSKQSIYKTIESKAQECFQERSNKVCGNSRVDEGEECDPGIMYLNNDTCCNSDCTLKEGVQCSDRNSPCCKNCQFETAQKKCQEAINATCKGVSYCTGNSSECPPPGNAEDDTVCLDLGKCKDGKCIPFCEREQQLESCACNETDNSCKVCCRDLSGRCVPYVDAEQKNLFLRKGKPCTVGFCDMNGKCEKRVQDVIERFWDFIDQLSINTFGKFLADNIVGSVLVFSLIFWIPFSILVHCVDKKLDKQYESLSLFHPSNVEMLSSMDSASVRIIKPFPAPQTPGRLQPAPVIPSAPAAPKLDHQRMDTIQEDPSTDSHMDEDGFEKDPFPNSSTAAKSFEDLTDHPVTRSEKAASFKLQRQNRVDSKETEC

[10] = Luminescence Cell-Based Dose Retest to Confirm Inhibitors of Cancer Stem Cells. [Related pubchem assays (depositor defined):AID2717, AID2721]; assay type: functional; conditions: Homo sapiens
[11] = HepG2 cell cytotoxicity, dose response, cytotoxicity control for Shn3 inhibitor project, CellTiter-Glo, cherry-picked (AID 624134); assay type: functional, cell-based
[12] = control 3'UTR Renilla luciferase suppression, dose response, counter-screen for Shn3 inhibitor project, cell-based, Clone20-Shn3RL, cherry-picked (AID 624133); assay type: functional
[13] = Shn3 3'UTR reporter inhibitors, dose response, cell-based, Clone20 osteoblasts, firefly luciferase, cherry-picked (AID 624132); assay type: functional;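 further: firefly luciferase luminescence from reporter carrying the Shn3 3'UTR in osteoblasts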
[14] = target: COUP transcription factor 2 (Homo sapiens, UniProt P24468); test: Luminescence-based cell-based high throughput dose response assay to identify inhibitors of COUP-TFII (NR2F2).; assay type: functional;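 further: HEK293 cells transiently cotransfected with COUP-TFII expression vector and reporter; luciferase reporter luminescence driven by COUP-TFII from the pX2-168 reporter plasmid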
Sequence of COUP transcription factor 2 (P24468 whole entry): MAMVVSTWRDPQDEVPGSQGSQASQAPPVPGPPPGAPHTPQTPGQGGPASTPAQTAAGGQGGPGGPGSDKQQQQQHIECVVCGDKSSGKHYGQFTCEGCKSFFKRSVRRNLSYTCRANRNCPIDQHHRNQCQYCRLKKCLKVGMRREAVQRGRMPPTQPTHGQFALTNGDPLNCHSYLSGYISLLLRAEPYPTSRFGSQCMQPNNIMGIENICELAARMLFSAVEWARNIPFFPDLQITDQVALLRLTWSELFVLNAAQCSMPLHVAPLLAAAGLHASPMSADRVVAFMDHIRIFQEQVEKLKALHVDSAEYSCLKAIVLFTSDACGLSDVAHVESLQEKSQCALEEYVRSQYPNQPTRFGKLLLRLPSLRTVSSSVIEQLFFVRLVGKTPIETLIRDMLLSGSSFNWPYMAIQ

[15] = target: T3, Protein skinhead-1 (Caenorhabditis elegans, UniProt P34707); assay type: functional
T3 sequence (P34707 whole entry): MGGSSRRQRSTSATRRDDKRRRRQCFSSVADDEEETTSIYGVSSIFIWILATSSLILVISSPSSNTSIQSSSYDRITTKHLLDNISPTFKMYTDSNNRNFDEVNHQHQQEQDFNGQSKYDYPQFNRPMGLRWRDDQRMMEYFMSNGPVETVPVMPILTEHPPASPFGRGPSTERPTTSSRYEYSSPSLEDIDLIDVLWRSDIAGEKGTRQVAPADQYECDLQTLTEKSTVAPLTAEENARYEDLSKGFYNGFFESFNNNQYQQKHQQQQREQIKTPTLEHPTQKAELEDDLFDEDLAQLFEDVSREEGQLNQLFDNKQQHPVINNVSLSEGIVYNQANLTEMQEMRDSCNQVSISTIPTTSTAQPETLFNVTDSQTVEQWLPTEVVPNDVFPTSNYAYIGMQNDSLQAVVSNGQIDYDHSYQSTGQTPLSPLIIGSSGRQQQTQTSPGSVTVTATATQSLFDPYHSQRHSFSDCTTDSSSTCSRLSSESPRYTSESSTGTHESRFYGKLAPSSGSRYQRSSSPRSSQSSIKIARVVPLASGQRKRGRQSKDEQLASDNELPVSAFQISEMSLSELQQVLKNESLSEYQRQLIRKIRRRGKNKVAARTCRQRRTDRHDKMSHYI

[16] = non-specific cell cytotoxicity, dose response, cytotoxicity control for PAX8 inhibitor project, plate reader, dry powder samples (AID 743021); assay type: functional, cell-based
[17] = target: Paired box protein Pax-8 (Homo sapiens, UniProt Q06710); test: inhibitors of PAX8-driven TPO luciferase reporter, dose response, RMG-I cells, cherry-pick (AID 687027); assay type: functional, cell-based;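 further: luciferase reporter driven by Pax8 target thyroperoxidase promoter measured by SteadyGlo luminescence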
Sequence of Paired box protein Pax-8 (Q06710 whole entry): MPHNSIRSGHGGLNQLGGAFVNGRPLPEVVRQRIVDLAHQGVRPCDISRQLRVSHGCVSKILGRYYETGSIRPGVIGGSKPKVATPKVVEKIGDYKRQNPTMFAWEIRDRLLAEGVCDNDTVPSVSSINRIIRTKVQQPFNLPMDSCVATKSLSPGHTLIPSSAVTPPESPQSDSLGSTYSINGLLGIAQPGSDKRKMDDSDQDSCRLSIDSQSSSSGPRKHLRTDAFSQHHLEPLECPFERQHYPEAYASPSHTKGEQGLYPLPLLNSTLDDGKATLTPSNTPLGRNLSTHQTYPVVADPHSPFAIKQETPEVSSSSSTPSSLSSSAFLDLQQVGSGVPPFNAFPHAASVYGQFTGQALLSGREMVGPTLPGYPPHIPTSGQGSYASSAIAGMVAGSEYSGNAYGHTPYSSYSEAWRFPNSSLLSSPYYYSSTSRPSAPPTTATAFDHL

[18] = IGROV1 ovarian cancer cell cytotoxicity, dose response, PAX8 inhibitor project, plate reader, dry powder samples (AID 743043); assay type: functional, cell-based; conditions: IGROV-1
[19] = NIH:OVCAR-3 ovarian cancer cell cytotoxicity, dose response, PAX8 inhibitor project, plate reader, dry powder samples (AID 743044); assay type: functional, cell-based

With `C[C@@H]1CN([C@@H](C)CO)C(=O)c2cccc(NC(=O)c3ccncc3)c2O[C@H]1CN(C)Cc1ccncc1` the IC50 [1] was 17.3 µM (inconclusive).

In the case of `COc1c(O)cc2oc(-c3ccc(O)cc3)cc(=O)c2c1O` [HISPIDULIN], the IC50 [2] was > 67.5 µM (inactive), the AC50 [3] was 0.572 µM (active) and the IC50 [4] was > 0.834 µM (active).

In the case of `O=c1c2ccccc2cnn1-c1ccc(Br)cc1`, the EC50 [5] was > 67.5 µM (inactive) and the EC50 [6] was > 67.5 µM (inactive).

With `CS(=O)(=O)NN1C(=O)c2ccccc2NC1c1ccccc1` (stereo not given) the IC50 [7] was > 1.11 µM (active).

For `Cc1ccc2c(Cl)c(C(=O)NC3CC3)sc2c1`, the IC50 [2] was > 67.5 µM (inactive) and the IC50 [4] was > 7.49 µM (active).

For `CCCOc1ccc(NC(=O)CC2C(=O)N(Cc3ccccc3)C(=S)N2Cc2cccs2)cc1` (stereo not given), the IC50 [8] was 44.4 µM (inactive) and the IC50 [9] was > 69.6 µM (inactive).

For `C=CCC[C@H](Cc1ccc(F)cc1)C(=O)OC[C@@H](Cc1c[nH]c2ccccc12)NC(=O)[C@H](CC=C)CC(=O)N(CCO)Cc1ccccc1`, the AC50 [10] was 3.42 µM (active), the AC50 [11] was 30.9 µM (active) and the IC50 [8] was > 7.72 µM (active). For the same compound, the AC50 [12] was 29 µM (active), the IC50 [9] was > 69.5 µM (inactive) and the AC50 [13] was 8.66 µM (active).

In the case of `Cc1ccc(F)cc1NC(=O)Cc1nn(C)c(=O)c2ccccc12`, the IC50 [14] was 12.7 µM (inactive) and the IC50 [15] was > 100 µM (inactive).

For `C[C@H](CO)N1C[C@H](C)[C@H](CN(C)Cc2ccc3c(c2)OCO3)OCCCC[C@H](C)Oc2ccc(NC(=O)Nc3ccc(C(F)(F)F)cc3)cc2C1=O`, the AC50 [16] was 46.4 µM (active) and the AC50 [17] was 9.15 µM (active).

For `Cc1ccccc1-c1ccc([C@@H]2[C@@H]3CN(C(=O)Nc4cccc(F)c4)C[C@H]2N3)cc1`, the AC50 [18] was 21.8 µM (active), the AC50 [16] was 22.9 µM (active) and the AC50 [19] was 37.4 µM (active). The AC50 [17] was 30.7 µM (active).
